The test system of experiment [1] is MKCL SeV2. In words: Relative number of platelets by FACS (anti-CD41/anti-CD42b) from immortalized megakaryocyte line cultured with inhibitor. The class given is cell-based, human. To be noted: 7th day of cultivation; 6-well dish; medium with 10 μM Y-27632, 50 ng/mL TPO, 50 ng/mL SCF; conclusion from FIG. 3 and FIG. 4 results. On the procedure:
The platelet production-promoting effect of the Wnt inhibitor and FLT3 inhibitor was then investigated. MKCL SeV2, on which the aforementioned reporter immortalized megakaryocyte cell line (MKCL#12-23 cre2) was based, was cultured in a 6-well dish on a differentiation medium supplemented with the Wnt or FLT3 inhibitor, 10 μM Y-27632, 50 ng/mL TPO, and 50 ng/mL SCF, or on a differentiation medium supplemented with 0.75 μM SR1, 10 μM Y-27632, 50 ng/mL TPO, and 50 ng/mL SCF (positive control), or on a differentiation medium supplemented with 0.1% DMSO, 10 μM Y-27632, 50 ng/mL TPO, and 50 ng/mL SCF (negative control). On the 7th day of cultivation, the culture medium was suspended and the supernatant was recovered; staining with anti-CD41 antibody and anti-CD42b antibody was performed; and FACS analysis was carried out. The relative number of platelets was calculated with correction of the platelet count for use of the particular inhibitor with the platelet count for the positive control (made 100%) and the platelet count for the negative control (made 0%) (FIG. 4).
On the technique in general: A flow cytometer gives signals particle by particle.

For experiment [2], the system named is reporter immortalized megakaryocyte cell line (MKCL#12-23 cre2). In words: VENUS fluorescence intensity of reporter immortalized megakaryocyte cell line cultured with inhibitor. The class given is cell-based, human. To be noted: 7th day of culture; 96-well dish; medium with 10 μM Y-27632, 50 ng/mL TPO, 50 ng/mL SCF; versus 0.1% DMSO negative control. The procedure:
The platelet production-promoting effect of a Wnt inhibitor and FLT3 inhibitor was then investigated. The aforementioned reporter immortalized megakaryocyte cell line (MKCL#12-23 cre2) was cultured in a 96-well dish on a differentiation medium supplemented with the particular inhibitor at a prescribed concentration, 10 μM Y-27632, 50 ng/mL TPO, and 50 ng/mL SCF, or on a differentiation medium supplemented with 0.75 μM SR1, 10 μM Y-27632, 50 ng/mL TPO, and 50 ng/mL SCF (positive control), or on a differentiation medium supplemented with 0.1% DMSO, 10 μM Y-27632, 50 ng/mL TPO, and 50 ng/mL SCF (negative control). When the VENUS fluorescence intensity was measured on the cells on the 7th day of culture, the fluorescence intensity was increased for media to which the Wnt inhibitor or FLT3 inhibitor had been added. The results of calculation of the relative fluorescence intensity are given in FIG. 3, where the platelet count for use of the particular inhibitor was corrected with the platelet count for the positive control (made 100%) and the platelet count for the negative control (made 0%).

The test system of experiment [3] is iPS cells (TkDA3-4). Description: Platelet production from iPS cell-derived cells under nonuse of feeder cells, FACS (anti-CD41/anti-CD42b). Type of experiment: cell-based. To be noted: 10 days of culture, 1 μM C59 or 3.3 μM FLT3 inhibitor versus 0.75 μM SR1, heparin, Y-27632, TPO, SCF. On the procedure:
iPS cells (TkDA3-4) were cultured and a colony was detached using a cell scraper and was cultured on a differentiation medium supplemented with […] VEGF. After 14 days, the cells were recovered using a cell scraper and 25 U/mL heparin, 10 μM Y-27632, 100 ng/mL TPO, and 50 ng/mL SCF were added. 0.1% DMSO, 0.75 μM SR1, 1 μM C59 (Calbiochem), or 3.3 μM FLT3 inhibitor (Santa Cruz Biotechnology) was also added to this culture medium and culture was carried out for 10 days. This was also carried out under the condition of the use of feeder cells as described above. The obtained cells were suspended and the supernatant was recovered; staining with anti-CD41 antibody and anti-CD42b antibody was performed; and FACS analysis was carried out (FIG. 4).

As to `Cc1cc(-c2ccc(CC(=O)Nc3ccc(-c4cccnc4)cc3)cc2)ccn1` [C59, 4-(2-methyl-4-pyridinyl)-N-[4-(3-pyridinyl)phenyl]benzeneacetamide], the “platelet production-promoting effect (platelet inducer)” value in experiment [1] is “strong platelet inducers”. Also, in experiment [2], the VENUS fluorescence intensity result is recorded as “increased”. In addition, the “platelet production capacity compared with SR1” value in experiment [3] is “same as or greater”.
For `COc1ccc(C(=O)Nc2sc3c(c2C(N)=O)CCCC3)cc1OC` [FLT3 inhibitor, 2-[(3,4-dimethoxybenzoyl)amino]-4,5,6,7-tetrahydrobenzo[b]thiophene-3-carboxamide], in that order: “strong platelet inducers”, “increased” and “same as or greater”.
